Data: patent US10821079B2, “PKC activators and combinations thereof” (Cognitive Research Enterprises, Inc., priority 2011, dated 2020)
Entries after “also recorded” stand apart in the source; their conditions may differ.

How the values were obtained:
[1] = system: phosphatidylserine (C2) binding site; assay: 3H-DCPLA-ME binding to rat brain slices with competitors, film autoradiography
Method: To determine the binding site of DCPLA-ME, ^3H-DCPLA-ME was incubated with rat brain slices in the absence and presence of known C1 and C2 competitors. More specifically, rat brain sections were fixed with formaldehyde, sliced, and incubated with (1) ^3H-DCPLA-ME alone; (2) ^3H-DCPLA-ME with DCPLA; (3) ^3H-DCPLA-ME with Phorbol ester; or (4) ^3H-DCPLA-ME and Bryostatin 1. After incubation, the slices were washed with a buffer made of 130 mM NaCl, 5 mM MgCl, 5 mM KCl, 1 mM EGTA, and 0.1% bovine serum albumin in 10 mM HEPES-NaOH, pH 7.4, dried, and analyzed with film-autoradiography.

PKC-ε = PKC-ε mRNA by RT-PCR in RA / Bryostatin-1 treated cells; assay type: cell-based, human
Method: RNA was isolated from the cells using Trizol reagent (Invitrogen, USA) following the manufacturer's protocol. Briefly, 5 μg of total RNA was reverse transcribed using oligo (dT) and Superscript III (Invitrogen, USA) at 50° C. for 1 hr. Two μl of the cDNA product was amplified using primers for PKC-ε (Forward Primer—[…], Reverse primer—[…]), and β-tubulin (Forward Primer—[…], Reverse primer—[…]) (Origene, Rockville, Md.) for 25 cycles following standard PCR protocols and 55° C. annealing temperature. The PCR amplicons were analyzed in an E-Gel (Invitrogen, USA). The gel image was documented using a Fuji Image gel scanner (FLA-9000, Fuji Film) and densitometric quantification was performed using the IMAL software (Blanchette Rockefeller Neurosciences Institute, Morgantown, W. Va.). Data were represented as normalized ratio of PKC-ε OD (Optical Density) against β-tubulin OD for three independent experiments.

PKC-δ = PKC-δ (Homo sapiens, UniProt Q05655); assay: Activation of purified PKC isozymes, radiometric: PKC-δ; assay type: biochemical
Method: To measure PKC activity, 10 μg of protein from either cytosol or membrane was incubated for 15 min at 37° C. in the presence of 10 μM histones, 4.89 mM CaCl2, 1.2 μg/μl phosphatidyl-L-serine, 0.18 μg/μl 1,2-dioctanoyl-sn-glycerol, 10 mM MgCl2, 20 mM HEPES (pH 7.4), 0.8 mM EDTA, 4 mM EGTA, 4% glycerol, 8 μg/ml aprotinin, 8 μg/ml leupeptin, 2 mM benzamidine, and 0.5 μCi of [γ-^32P]ATP. [^32P]Phosphoprotein formation was measured by adsorption onto phosphocellulose as described previously. See Nelson et al. (2009) J Biol Chem 284, 34514-34521. For measurements of activation by RA, PKC activity was measured in the absence of diacylglycerol (DAG) and phosphatidylserine, as described by Nelson et al. (2009) J Biol Chem 284, 34514-34521. PKC-δ and PKC-ε were measured in the absence of added EGTA and CaCl^2, as described by Kanno et al. (2006) J Lipid Res 47, 1146-1156. The enzyme was provided as a purified isozyme for in vitro experiments.
To measure PKC, 10 μl of cell homogenate or purified PKC isoform was incubated for 15 min at 37° C. in the presence of 10 μM histones, 4.89 mM CaCl2, 1.2 μg/μl phosphatidyl-L-serine, 0.18 μg/μl 1,2-dioctanoyl-sn-glycerol, 10 mM MgCl2, 20 mM HEPES (pH 7.4), 0.8 mM EDTA, 4 mM EGTA, 4% glycerol, 8 μg/ml aprotinin, 8 μg/ml leupeptin, and 2 mM benzamidine. [γ32P]ATP (0.5 μCi) was added and 32P-phosphoprotein formation was measured by adsorption onto phosphocellulose as described previously. See Nelson et al., J. Neurochemistry, 1995, 65: 2350-2357.
PKC activity of each compound was measured in the absence of diacylglycerol and phosphatidylserine and PKC-δ and PKC-ε were measured in the absence of added EGTA and CaCl2, as described by Kanno et al., J. Lipid Res., 2006, 47: 1146-1156. Low concentrations of Ca^2+ were needed because high Ca^2+ can interact with the PKC phosphatidylserine binding site and prevents activation. […] To determine their PKC isoform specificity, the compounds were pre-incubated with purified isoforms of PKC for five minutes and the PKC activity was measured radiometrically.

[2] = system: rat hippocampal primary neurons; assay: Synaptic marker immunofluorescence in rat hippocampal primary neurons; assay type: cell-based; conditions: 50 nM ASPD alone (ASPD) or with 100 nM DCPLA-ME, 20 hr
Method: Cells were grown in two chambered slides (Nunc, USA) at low density. For immunofluorescence staining, the cells were washed with PBS (pH 7.4) and fixed with 4% paraformaldehyde for 4 min. Following fixation, the cells were blocked and permeabilized with 5% serum and 0.3% Triton X 100 in 1×PBS for 30 min. The cells were washed three times with 1×PBS and incubated with primary antibodies for 1 hr at 1:100 dilution. The incubation slides were then washed again three times in 1×PBS and were incubated with the FITC anti-rabbit IgG and Rhodamine anti-mouse IgG for 1 hr at 1:400 dilution. The cells were further washed and treated with DAPI (4′,6-diamidino-2′-phenylindole, dihydrochloride) (Thermo Scientific, USA) to stain the nucleus. Finally, the slides were washed and mounted in Pro Long Gold antifade mounting solution (Invitrogen, USA) and were viewed under the LSM 710 Meta confocal microscope (Zeiss) at 350 nm, 490 nm, and 540 nm excitation and 470 nm, 525 nm, and 625 nm emission for DAPI, FITC, and Rhodamine respectively. Six individual fields at 63× oil lens magnification were analyzed for the mean fluorescence intensity (MFI) in each channel. The co-localization correlation generated by the ZEN software (Zeiss).
To estimate the synaptic damage caused by the ASPDs on primary hippocampal neurons, the expression of synaptophysin (a presynaptic marker) and PSD-95 (a postsynaptic marker) was measured by immunofluorescence staining. […] Following a 20 hr incubation period, the cells were stained for nucleus, PSD-95, and synaptophysin. Expression levels were calculated as the change of percentage in mean fluorescence intensity compared to untreated cells.
Primary neurons, treated and untreated, were immunostained for MAP-2, synaptophysin, and PSD-95 to determine the synaptic integrity. […] Following a 20 hr incubation period, the cells were stained for MAP-2, PSD-95, and synaptophysin as described above.

Sequence of PKC-δ (Q05655 whole entry): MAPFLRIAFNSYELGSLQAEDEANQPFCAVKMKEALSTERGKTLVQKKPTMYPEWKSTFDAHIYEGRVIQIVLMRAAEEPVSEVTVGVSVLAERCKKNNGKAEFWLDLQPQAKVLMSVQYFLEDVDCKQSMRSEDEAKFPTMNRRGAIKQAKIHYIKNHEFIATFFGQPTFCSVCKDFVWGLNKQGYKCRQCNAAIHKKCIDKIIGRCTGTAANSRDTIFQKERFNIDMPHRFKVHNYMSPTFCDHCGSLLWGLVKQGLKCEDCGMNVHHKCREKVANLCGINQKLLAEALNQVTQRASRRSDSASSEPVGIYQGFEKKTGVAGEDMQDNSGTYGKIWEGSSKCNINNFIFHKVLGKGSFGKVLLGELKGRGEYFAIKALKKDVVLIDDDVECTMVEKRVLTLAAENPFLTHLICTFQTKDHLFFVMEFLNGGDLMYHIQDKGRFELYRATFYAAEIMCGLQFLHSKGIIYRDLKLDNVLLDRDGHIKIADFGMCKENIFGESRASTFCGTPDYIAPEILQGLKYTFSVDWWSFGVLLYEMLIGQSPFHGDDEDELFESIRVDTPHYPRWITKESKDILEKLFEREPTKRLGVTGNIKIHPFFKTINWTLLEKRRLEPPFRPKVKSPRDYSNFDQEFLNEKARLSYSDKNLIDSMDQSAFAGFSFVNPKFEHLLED

| SMILES | 3H-DCPLA-ME binding, 30 nM competitor [1] | 3H-DCPLA-ME binding, 1 μM competitor [1] | increase of mRNA level of PKC-ε (PKC-ε) | effect on PKC-δ (in words) (PKC-δ) | MAP-2 expression (mean fluorescence intensity) [2] | PSD-95 expression (mean fluorescence intensity) [2] | synaptophysin expression (mean fluorescence intensity) [2] |
| --- | --- | --- | --- | --- | --- | --- | --- |
| CCC/C=C/C=C/C(=O)O[C@H]1/C(=C/C(=O)OC)C[C@H]2C[C@H]([C@@H](C)O)OC(=O)C[C@H](O)C[C@@H]3C[C@H](OC(C)=O)C(C)(C)C(O)(C[C@@H]4C/C(=C/C(=O)OC)C[C@H](/C=C/C(C)(C)[C@]1(O)O2)O4)O3 [Bryostatin-1] | 100% | 77% | 2 fold | – | – | – | – |
| CCCCCC1CC1CC1CC1CCCCCCCC(=O)OC (centres unmarked) [DCPLA-ME, methyl 8-(2-((2-pentylcyclopropyl)methyl)cyclopropyl)octanoate] | 64% | 37% | – | did not have a major effect; also recorded: less inhibitory effect on PKC-δ than DHA-CP6 and DCPLA | 68.87±2.0% | 99.2±11.3% | 87.48±3.75% |
| CC1=C(/C=C/C(C)=C/C=C/C(C)=C/C(=O)O)C(C)(C)CCC1 [RA, All-trans retinoic acid] | – | – | 2 fold | not activated | – | – | – |
